Measurements taken from patent publication US5773646A, “Meta-substituted phenylene derivatives” (G. D. Searle & Co., priority 1997, dated 1998).
Structures can show the parent of a compound that is named as a salt.

How the values were obtained:
[1] = biological target: T1, Human vitronectin receptor (αv β3) (Homo sapiens, UniProt P05106+P06756); assay: Vitronectin adhesion assay (solid phase receptor assay, biotinylated vitronectin competition); assay type: binding; conditions: inhibition of 50% of the maximum binding of biotinylated vitronectin; 1 nM labeled ligand, 2 hours, room temperature, highest concentration of test compound 1.0×10^-4 M; read-out: AvB3 IC50
T1 construct: Human vitronectin receptor(αv β3) was purified from human placenta; from tissue; host or cells: human placenta
Protocol: VITRONECTIN ADHESION ASSAY Human vitronectin receptor(αv β3) was purified from human placenta as previously described [Pytela et al., Methods in Enzymology, 144:475-489 (1987)). Human vitronectin was purified from fresh frozen plasma as previously described [Yatohgo et al., Cell Structure and Function, 13:281-292 (1988)]. Biotinylated human vitronectin was prepared by coupling NHS-biotin from Pierce Chemical Company (Rockford, Ill.) to purified vitronectin as previously described [Charo et al., J. Biol. Chem., 266(3):1415-1421 (1991)]. Assay buffer, OPD substrate tablets, and RIA grade BSA were obtained from Sigma (St. Louis, Mo.). Anti-biotin antibody was obtained from Calbiochem (La Jolla, Calif.). Linbro microtiter plates were obtained from Flow Labs (McLean, Va.). ADP reagent was obtained from Sigma (St. Louis, Mo.). Solid Phase Receptor Assays This assay was essentially the same as previously reported [Niiya et al., Blood, 70:475-483 (1987)]. The purified human vitronectin receptor (αv β3) was diluted from stock solutions to 1.0 μg/mL in Tris-buffered saline containing 1.0 mM Ca^++, Mg^++, and Mn^++, pH 7.4 (TBS^+++). The diluted receptor was immediately transferred to Linbro microtiter plates at 100 μL/well (100 ng receptor/well). The plates were sealed and incubated overnight at 4° C. to allow the receptor to bind to the wells. All remaining steps were at room temperature. The assay plates were emptied and 200 μL of 1% RIA grade BSA in TBS^+++ (TBS^+++ /BSA) were added to block exposed plastic surfaces. Following a 2 hour incubation, the assay plates were washed with TBS^+++ using a 96 well plate washer. Logarithmic serial dilution of the test compound and controls were made starting at a stock concentration of 2 mM and using 2 nM biotinylated vitronectin in TBS^+++ /BSA as the diluent. This premixing of labeled ligand with test (or control) ligand, and subsequent transfer of 50 μL aliquots to the assay plate was carried out with a CETUS Propette robot; the final concentration of the labeled ligand was 1 nM and the highest concentration of test compound was 1.0×10^-4 M. The competition occurred for two hours after which all wells were washed with a plate washer as before. Affinity purified horseradish peroxidase labeled goat antibiotin antibody was diluted 1:3000 in TBS^+++ /BSA and 125 μL were added to each well. After 30 minutes, the plates were washed and incubated with OPD/H2 O2 substrate in 100 mM/L Citrate buffer, pH 5.0. The plate was read with a microtiter plate reader at a wavelength of 450 nm and when the maximum-binding control wells reached an absorbance of about 1.0, the final A450 were recorded for analysis. The data were analyzed using a macro written for use with the EXCEL™ spreadsheet program. The mean, standard deviation, and %CV were determined for duplicate concentrations. The mean A450 values were normalized to the mean of four maximum-binding controls (no competitor added)(B-MAX). The normalized values were subjected to a four parameter curve fit algorithm [Rodbard et al., Int.

[2] = biological target: T2, Human fibrinogen receptor (αIIb β3) (Homo sapiens, UniProt P05106+P08514); assay: Purified IIb/IIIa receptor assay (solid phase receptor assay, biotinylated vitronectin competition); conditions: inhibition of 50% of the maximum binding of biotinylated vitronectin; 1 nM labeled ligand, 2 hours, room temperature, highest concentration of test compound 1.0×10^-4 M
T2 construct: Human fibrinogen receptor (αIIb β3) was purified from outdated platelets; from tissue; host or cells: outdated human platelets
Text: PURIFIED IIb/IIIa RECEPTOR ASSAY Human fibrinogen receptor (αIIb β3) was purified from outdated platelets. (Pytela, R., Pierschbacher, […]., Suzuki, S., and […] acid adhesion receptors", Methods in Enzymology 144(1987):475-489.) Human vitronectin was purified from fresh frozen plasma as described in Yatohgo, T., Izumi, M., Kashiwagi, H., and Hayashi, M., "Novel purification of vitronectin from human plasma by heparin affinity chromatography," Cell Structure and Function 13(1988):281-292. Biotinylated human vitronectin was prepared by coupling NHS-biotin from Pierce Chemical Company (Rockford, Ill.) to purified vitronectin as previously described. (Charo, […]., Phillips, D. R., Hsu, M. A., Scarborough, R. M., "Inhibition of fibrinogen binding to GP IIb/IIIa by a GP IIIa peptide", J. Biol. Chem. 266(3)(1991):1415-1421.) Assay buffer, OPD substrate tablets, and RIA grade BSA were obtained from Sigma (St. Louis, Mo.). Anti-biotin antibody was obtained from Calbiochem (La Jolla, Calif.). Linbro microtiter plates were obtained from Flow Labs (McLean, Va.). ADP reagent was obtained from Sigma (St. Louis, Mo.). Solid Phase Receptor Assays This assay is essentially the same reported in […]., Bader, R., Byers-Ward, […]., Plow, E. F. and Ruggeri, Z. M., "Increased surface expression of the membrane glycoprotein IIb/IIIa complex induced by platelet activation: Relationships to the binding of fibrinogen and platelet aggregation", Blood 70(1987):475-483. The purified human fibrinogen receptor (αIIb β3) was diluted from stock solutions to 1.0 μg/mL in Tris-buffered saline containing 1.0 mM Ca^++, Mg^++, and Mn^++, pH 7.4 (TBS^+++). The diluted receptor was immediately transferred to Linbro microtiter plates at 100 μL/well (100 ng receptor/well). The plates were sealed and incubated overnight at 4° C. to allow the receptor to bind to the wells. All remaining steps were at room temperature. The assay plates were emptied and 200 μL of 1% RIA grade BSA in TBS^+++ (TBS^+++ /BSA) were added to block exposed plastic surfaces. Following a 2 hour incubation, the assay plates were washed with TBS^+++ using a 96 well plate washer. Logarithmic serial dilution of the test compound and controls were made starting at a stock concentration of 2 mM and using 2 nM biotinylated vitronectin in TBS^+++ /BSA as the diluent. This premixing of labeled ligand with test (or control) ligand, and subsequent transfer of 50 μL aliquots to the assay plate was carried out with a CETUS Propette robot; the final concentration of the labeled ligand was 1 nM and the highest concentration of test compound was 1.0×10^-4 M. The competition occurred for two hours after which all wells were washed with a plate washer as before. Affinity purified horseradish peroxidase labeled goat antibiotin antibody was diluted 1:3000 in TBS^+++ /BSA and 125 μL were added to each well. After 30 minutes, the plates were washed and incubated with […]/H2 O2 substrate in 100 mM/L citrate buffer, pH 5.0. The plate was read with a microtiter plate reader at a wavelength of 450 nm and when the maximum-binding control wells reached an absorbance of about 1.0, the final A450 were recorded for analysis. The data were analyzed using a macro written for use with the EXCELTM spreadsheet program. The mean, standard deviation, and %CV were determined for duplicate concentrations. The mean A450 values were normalized to the mean of four maximum-binding controls (no competitor added)(B-MAX). The normalized values were subjected to a four parameter curve fit algorithm, [Robard et al., Int.

## O=C(O)CC(c1cc(F)cc(F)c1)c1cccc(NS(=O)(=O)c2cccc(NC3=NCCCN3)c2)c1 (stereo not drawn) [Example 97, 3,5-difluoro-β-[3-[[[3-[(1,4,5,6-tetrahydropyrimidin-2-yl)amino]phenyl]sulfonyl]amino]phenyl]benzenepropanoic Acid, Bis(trifluoroacetate) Salt]
[1]
  IC50: 0.75 nM
[2]
  IC50: 262 nM

## N=C(N)Nc1cccc([S+]([O-])Cc2cccc(C(CC(=O)O)c3ccccc3)c2)c1 (stereo not drawn) [Example 88, 3-[[[3-[(aminoiminomethyl)amino]phenyl]sulfinyl]methyl]-β-phenylbenzenepropanoic Acid, Trifluoroacetate Salt]
[1]
  IC50: 19.6 nM
[2]
  IC50: 870 nM

## N=C(N)Nc1cccc(C(=O)NCCc2cccc(CC(=O)O)c2)c1 [Example 44, 3-[2-[[[3-[(aminoiminomethyl)amino]phenyl]carbonyl]amino]ethyl]benzeneacetic acid, monohydrate trifluoroacetate salt]
[1]
  IC50: 3210 nM
[2]
  IC50: 94 nM

## CCC(CC(=O)O)c1cccc(CNC(=O)c2cccc(NC(=N)N)c2)c1 (stereo not drawn) [Example 42, 3-([[[3-[(aminoiminomethyl)amino]phenyl]carbonyl]amino]methyl]-β-ethylbenzenepropanoic acid, trifluoroacetate salt]
[1]
  IC50: 11.7 nM
[2]
  IC50: 472 nM

## CC(=O)NC(Cc1cccc(CNC(=O)c2cccc(NC(=N)N)c2)c1)C(=O)O (stereo not shown) [Example 45, N-acetyl-3-[[[[3-[(aminoiminomethyl)amino]phenyl]carbonyl]amino]methyl)phenylalanine, bis(trifluoroacetate) salt]
[1]
  IC50: 72.3 nM
[2]
  IC50: 1370 nM

## 3-[[[[3-[(aminothioxomethyl)amino]phenyl]carbonyl]amino]methyl]benzenepropanoic acid [Example 25]
[1]
  IC50: 7460 nM
[2]
  IC50: 26900 nM

## N=C(N)Nc1cccc(/C=C/c2cccc(C(CC(=O)O)c3ccccc3)c2)c1 (stereo not drawn) [Example 75, 3-[2E-[3-[(aminoiminomethyl)amino]phenyl]ethenyl]-β-phenylbenzenepropanoic Acid, Bis(trifluoroacetate) Salt]
[1]
  IC50: 54.5 nM
[2]
  IC50: 6150 nM

## CC(CC(=O)O)c1cccc(CNC(=O)c2cccc(NC(=N)N)c2)c1 (stereo not drawn) [Example 40, 3-[[[[3-[(aminoiminomethyl)amino]phenyl]carbonyl]amino]methyl]-β-methylbenzenepropanoic acid, trifluoroacetate salt]
[1]
  IC50: 11.6 nM
[2]
  IC50: 2260 nM

## N=C(N)Nc1cccc(/C=C/C(=O)c2cccc(OCC(=O)O)c2)c1 [Example 73, 2-[3-[3-[3-[(aminoiminomethyl)amino]phenyl]-1-oxopropenyl]phenoxy]acetic acid, monohydrochloride]
[1]
  IC50: 589 nM
[2]
  IC50: 11300 nM

## N=C(N)Nc1cccc(C(=O)Nc2cccc(CCC(=O)O)c2)c1 [Example 36, 3-[[[3-[(aminoiminomethyl)amino]phenyl]carbonyl]amino]benzenepropanoic acid, trifluoroacetate salt]
[1]
  IC50: 13700 nM
[2]
  IC50: 72400 nM

## N=C(N)Nc1cccc(C(=O)NCc2cccc(C(CC(=O)O)c3cc(F)cc(F)c3)c2)c1 (racemic) [Example 60, (±) β-[3-[[[[3-[(aminoiminomethyl)amino]phenyl]carbonyl]amino]methyl]phenyl]-3,5-difluorobenzenepropanoic acid, trifluoroacetate salt]
[1]
  IC50: 4.58 nM
[2]
  IC50: 286 nM

## N=C(N)Nc1cccc(C(=O)NCc2cccc(CCC(=O)O)c2)c1 [Example 35, 3-[[[[3-[(aminoiminomethyl)amino]phenyl]carbonyl]amino]methyl]benzenepropanoic acid, trifluoroacetate salt]
[1]
  IC50: 183 nM
[2]
  IC50: 6080 nM

## N=C(N)Nc1cccc(C(=O)Nc2cccc(C(CC(=O)O)c3ccccc3)c2)c1 (stereo not drawn) [Example 2, 3-[[[3-[(aminoiminomethyl)amino]phenyl]carbonyl]amino]-β-phenylbenzenepropanoic acid, trifluoroacetate salt]
[1]
  IC50: 499 nM
[2]
  IC50: 3760 nM

## N=C(N)Nc1cccc(C(=O)NCc2cccc(C(CC(=O)O)c3ccccc3)c2)c1 (stereo not drawn) [Example 38, 3-[[[[3-[(aminoiminomethyl)amino]phenyl]carbonyl]amino]methyl]-β-phenylbenzenepropanoic acid, trifluoroacetate salt]
[1]
  IC50: 8.95 nM
[2]
  IC50: 364 nM

## N=C(N)Nc1cccc(S(=O)(=O)Cc2cccc(C(CC(=O)O)c3ccccc3)c2)c1 (stereo not drawn) [Example 89, 3-[[[3-[(aminoiminomethyl)amino]phenyl]sulfonyl]methyl]-β-phenylbenzenepropanoic Acid, Trifluoroacetate Salt]
[1]
  IC50: 4.56 nM
[2]
  IC50: 799 nM

## N=C(N)Nc1cccc(/C=C\c2cccc(C(CC(=O)O)c3ccccc3)c2)c1 (stereo not drawn) [Example 76, 3-[2Z-[3-[(aminoiminomethyl)amino]phenyl]ethenyl]-β-phenylbenzenepropanoic Acid, Bis(trifluoroacetate) Salt]
[1]
  IC50: 87 nM
[2]
  IC50: 1770 nM

## N=C(N)Nc1cccc(CC(=O)Nc2cccc(CCC(=O)O)c2)c1 [Example 46, 3-[[[3-[(aminoiminomethyl)amino]phenyl]acetyl]amino]benzenepropanoic acid, trifluoroacetate salt]
[1]
  IC50: 2440 nM
[2]
  IC50: 2280 nM
